Laboratory results as given in patent US20070027216A1, “NOVEL HYDROCHLORIDE SALTS OF LEVODOPA” (priority 2005, published 2007).

What was measured:
[1] = temperature not given; cited from earlier work
[2] = In vitro dissolution of fast-dissolve tablets in SGF (simulated gastric fluid); format: physicochemical; conditions: 50 rpm, FIG. 5; for time to realize >90% dissolved: about 400 mg tablet, target 100 mg levodopa, lactose filler, 200 mL SGF pH 2.0, 37 degrees C., average of N=2, normalized by final concentration
Description: A dissolution study for a levodopa fast-dissolve tablet feasibility study was completed. All tablets were about 400 mg total weight and contained a target of 100 mg levodopa in four forms: levodopa free base, levodopa hydrochloride salt (from Example 1), levodopa free base jet milled (5-10 micrometers), and levodopa free base jet milled granulated with HPC-L solution. The filler for the tablet was Pharmatose DCL 14 (lactose). The dissolution was carried out in 200 mL of SGF (simulated gastric fluid) at 37 degrees C. using an overhead mixer at a speed of 50 rpm. […] In the above described dissolution study, the SGF was prepared using the following preparation: Dissolved 4 grams sodium chloride and 2 grams Triton X-100 in 2000 mL HPLC grade water. Added 1 N hydrochloric acid to the solution until the pH reached 2.0.

Aqueous solubility = format: physicochemical; conditions: water, 25 °C; at about 25 degrees C.
Description: To a slurry containing levodopa (15.1 g, 0.0766 mol) in acetonitrile (750 ml) was added concentrated hydrochloric acid (7.0 mL, 0.0781 mol) dropwise with stirring. Addition of hydrochloric acid to the slurry caused it to form a clear solution followed by precipitation of levodopa hydrochloride. The solid material was collected by filtration and dried under a flow of nitrogen overnight. The solid was characterized using PXRD (Bruker), DSC, TGA and Raman spectroscopy.

N[C@@H](Cc1ccc(O)c(O)c1)C(=O)O [levodopa free base, (−)-2-amino-3-(3,4-dihydroxyphenyl)propanoic acid]
aqueous solubility of the free base [1]: about 1.65 mg/mL
time to realize >90% dissolved [2]: about 20 minutes
time to >90% dissolved, free base versus hydrochloride salt ([2]; same tablets, 200 mL SGF, 37 degrees C.): about twice as long

Cl.NC(Cc1ccc(O)c(O)c1)C(=O)O (single isomer, unassigned; (-)) [levodopa hydrochloride salt, (−)-2-amino-3-(3,4-dihydroxyphenyl)propanoic acid hydrochloride]
time to realize >90% dissolved [2]: ~10 min
solubility (Aqueous solubility): 11 to 16 mg/mL
